Test results published in patent publication US20150210729A1, “MACROLIDE DERIVATIVES, PREPARATION THEREOF AND THERAPEUTIC USE THEREOF” (priority 2012, published 2015).
Converted amounts (≈) assume the structure as drawn.

Experiments:
[1] = test system: Mycobacterium tuberculosis H37Rv; assay: Alamar blue (MABA) test, MIC on Mycobacterium tuberculosis H37Rv; assay type: cell-based; conditions: minimum inhibitory concentration, Alamar blue, strain H37Rv, read-out: MIC (μM) MTb H37Rv
Streptococcus pneumoniae = assay: ATP bioluminescence test, inhibition of bacterial growth of Streptococcus pneumoniae (IC80); assay type: cell-based; conditions: 80% inhibition of bacterial growth, ATP/luciferase readout, read-out: IC80 (μM) S. pneumoniae
Experimental: Measurement of the Inhibitory Activity (IC80) of the Compounds According to the Invention Towards Streptococcus pneumoniae
The test used is a bioluminescence test, the aim of which is to measure the inhibition of bacterial growth of Streptococcus pneumoniae by quantification of the amount of adenosine triphosphate (ATP). Specifically, ATP is a major and mandatory energy intermediate of very many reactions of cell metabolism which characterizes live media.
ATP quantification is performed at the end of the test by using an enzyme, luciferase, which, in the presence of ATP and of a specific substrate, luciferin, produces quantifiable light.
Thus, in the presence of luciferin and luciferase at […] concentrations, the value obtained in relative light units (RLU) will make it possible, by means of a calibration, to estimate the amount of ATP and thus deduce the number of live bacteria at the end of the incubation period.
Thus, the more the RLU value obtained at the end of the test tends towards zero, the more the product inhibits the total growth of bacteria.
The results (Table 3) are expressed in IC80.

Row | Compound | MIC [1] [µM] | IC80 (Streptococcus pneumoniae) [µM]
1 | CON=C1C[C@@H](C)O[C@@H](O[C@@H]2[C@@H](C)[C@H](O[C@H]3C[C@@H](C)N(C)C[C@H](C)O3)[C@@H](C)C(=O)OC([C@@H](C)CO[C@@H]3O[C@H](C)[C@@H](O)[C@@H](OC)[C@H]3OC)[C@H](C)[C@@H](OC(=O)CC(C)C)[C@@H](C)C(=O)[C@@](C)(OC(=O)NCCNc3ccnc4cc(Cl)ccc34)C[C@@H]2C)[C@@H]1O (stereo partly drawn) [Compound 26] | 0.78 (≈ 0.965 µg/mL) | 0.69
2 | CON=C1C[C@@H](C)O[C@@H](O[C@@H]2[C@@H](C)[C@H](O[C@H]3C[C@H](C)N(Cc4ccccc4)C[C@H](C)O3)[C@@H](C)C(=O)OC([C@@H](C)CO[C@@H]3O[C@H](C)[C@@H](O)[C@@H](OC)[C@H]3OC)[C@H](C)[C@@H](OC(=O)CC(C)C)[C@@H](C)C(=O)[C@@](C)(OC(=O)NCCNC(=O)c3cnc(O)cn3)C[C@@H]2C)[C@@H]1O (stereo partly drawn) [Compound 33] | 0.35 (≈ 0.446 µg/mL) | 1.34
3 | CON=C1C[C@@H](C)O[C@@H](O[C@@H]2[C@@H](C)[C@H](O[C@H]3CC(C)N(C4CC4)C[C@H](C)O3)[C@@H](C)C(=O)OC([C@@H](C)CO[C@@H]3O[C@H](C)[C@@H](O)[C@@H](OC)[C@H]3OC)[C@H](C)[C@@H](OC(=O)CC(C)C)[C@@H](C)C(=O)[C@@](C)(OC(=O)NCc3ccccc3)C[C@@H]2C)[C@@H]1O (stereo partly drawn) [Compound 35] | 0.36 (≈ 0.413 µg/mL) | 1.81
